In patent US20030073683A1, “Administration of noncompetitive AMPA receptor antagonist for neuroprotection after traumatic brain injury” (priority 2001, published 2003):
Read-outs that look alike come from different tables or passages of the source.

Assays:
[1] = tested on: global cerebral ischemia in rats; conditions: cited from earlier work
[2] = tested on: conscious male Sprague-Dawley rats; assay: Cardiovascular effects in conscious rats; assay type: in vivo, rat; conditions: single oral doses of 0.1, 0.3, 3 or 10 mg/kg; 2 hr
Procedure: Talampanel was examined for potential cardiovascular effects in conscious male Sprague-Dawley rats for 2 hr, following single oral doses of 0.1, 0.3, 3 or 10 mg/kg. The cardiovascular variables measured included systolic, diastolic and mean arterial pressure, arterial pulse pressure, and heart rate. […] Thus, taken together, these in vitro and in vivo studies makes AMPA antagonists and specifically talampanel attractive candidates for a number of therapeutic indications (data not shown).

[3] = tested on: severe epilepsy not responsive to other drugs; conditions: patients with severe epilepsy not responsive to other drugs; cited from earlier work
kindled seizures = conditions: cited from earlier work
[4] = tested on: fluid-percussion brain injury; assay: Fluid-percussion brain injury in rats: histopathological contusion areas; assay type: in vivo, rat; conditions: for reduction of mean contusion area vs vehicle-treated rats: 4 mg/kg bolus + 4 mg/kg/h over 72 hr I.V.
Source text: (§1) Rat Model. Fasted male Sprague-Dawley rats, weighing 290-390 g were employed. The animals were initially anesthetized with 3% halothane, 70% nitrous oxide, and a balance of oxygen. Rats were positioned in a stereotaxic frame following endotracheal intubation. A 4.8-mm craniotomy was made overlying the right parietal cortex (3.8 mm posterior to bregma and 2.5 mm lateral to midline) as previously described by Belayev et al., J. Neurotrauma, 16: 445-453 (1999) and Dietrich et al., J. Neuropathol. (Beri.) 87: 250-258 (1994). Next, a plastic injury tube was positioned over the exposed dura matter. Dental acrylic was then used to bond the injury tube to surrounding structures. After the acrylic had hardened, the injury tube was plugged with a Gelfoam sponge, the scalp closed with sutures, and the animal was returned to its cage and allowed to recover overnight.
(§2) Fluid-Percussion Brain Injury. The following day, the rats were reanesthetized with halothane, orotracheally intubated, and maintained on 70% nitrous oxide, 1.5% halothane, and a balance of oxygen. Temperature probes were inserted into the rectum (CMA/150 Temperature Controller, CMA/Microdialysis AB, Stockholm, Sweden) and the left temporalis muscle (Thermocouple Probe, Omega Engineering, Stanford, Conn.), and separate heating lamps were used to maintain rectal temperature and temporalis muscle temperature at 37.0-37.5° C. The right femoral artery and vein were catheterized for continuous blood pressure monitoring and periodic blood sampling for arterial gases, pH, hematocrit, and plasma glucose (measurements taken 15 min before TBI and 15 min after TBI). Rectal temperature and body weight was monitored before trauma and periodically for 7 days after trauma. Mean arterial blood pressure (MABP) was measured via an indwelling femoral arterial catheter connected to a precalibrated Statham pressure transducer (model P23XL, Viggo-Spectramed Inc., Oxnard, Calif., USA) and was recorded continuously (model RS3400 polygraph, Gould, Inc., Valley View, Ohio, USA). Serial measurements were made of arterial blood gases and pH (model ABL 330, Radiometer America, Inc. Westlake, Ohio, USA) and plasma glucose (model 2300 Stnt; Yellow Springs Instrument Co., Inc., Yellow Springs, Ohio, USA).
(§3) A fluid-percussion device was connected to the injury tube of the rat's skull. This device consisted of a saline-filled cylindrical Plexiglas reservoir having a rubber-coated piston at one end, a transducer housing to permit measurement of pressure transients, and a connecting device adapted to the rat's skull. Injury was induced by the descent of a pendulum, conveying a pressure transient of 1.5-2.0 atm. to the right dorsolateral parietal cortex (see Dietrich et al., J. Neuropathol. (Beri.), 87: 250-258 (1994)). Sham-operated animals (n=9) underwent similar surgical procedures but were not injured.
(§4) Drug-Infusion System. The femoral-vein cannula was tunneled subcutaneously so as to exit from the dorsal neck and was connected to a swivel device (Stoelting Co., Wood Dale, Ill., USA) attached to the roof of a spacious cage. This device allowed bi-directional rotation. PE-50 tubing extending from the other end of the device was joined to a disposable syringe attached to an infusion pump (KDS-100, KD Scientific, Boston, Mass., USA). This tethering system allowed the rats free movement without interfering with the patency of the cannula during drug administration.
(§5) Drug Administration. Talampanel (Lilly Research Laboratories, Indianapolis, Ind., USA; bolus infusion of 4 mg/kg followed by infusion of 4 mg/kg/h over 72 hr) or vehicle (40% 2-hydroxylpropyl-β-cyclodextrin solution, 0.3-ml bolus plus 0.3 ml/kg/hr over 72 hr) was administered I.V. beginning 30 min or 3 hr after trauma or sham operation.
Histopathological Analysis of Brain Trauma. Animals were allowed to survive for 7 days following fluid-percussion brain injury. […]

[5] = tested on: fluid-percussion brain injury; assay: Fluid-percussion brain injury in rats: normal pyramidal neuron counts in hippocampus; assay type: in vivo, rat
Source text: as §1, §2, §3, §4, §5
Histopathology of Hippocampus. […]

rats = assay: Preliminary experiment with continuous infusion in rats (clinical signs); assay type: in vivo, rat; conditions: doses of 8 and 10 mg/kg (5, 8 or 10 mg/kg tested)
Procedure: The dosage was chosen because talampanel has been studied in vivo in a gerbil model of global ischemia (Lodge et al., Neuropharmacology, 35: 1681-1688 (1996)). […] Therefore, the dose was reduced to about 5 mg/kg.

Sprague-Dawley rats = conditions: rat, in vivo
Source text: Fluid-Percussion Brain Injury. The following day, the rats were reanesthetized with halothane, orotracheally intubated, and maintained on 70% nitrous oxide, 1.5% halothane, and a balance of oxygen. Temperature probes were inserted into the rectum (CMA/150 Temperature Controller, CMA/Microdialysis AB, Stockholm, Sweden) and the left temporalis muscle (Thermocouple Probe, Omega Engineering, Stanford, Conn.), and separate heating lamps were used to maintain rectal temperature and temporalis muscle temperature at 37.0-37.5° C. The right femoral artery and vein were catheterized for continuous blood pressure monitoring and periodic blood sampling for arterial gases, pH, hematocrit, and plasma glucose (measurements taken 15 min before TBI and 15 min after TBI). Rectal temperature and body weight was monitored before trauma and periodically for 7 days after trauma. Mean arterial blood pressure (MABP) was measured via an indwelling femoral arterial catheter connected to a precalibrated Statham pressure transducer (model P23XL, Viggo-Spectramed Inc., Oxnard, Calif., USA) and was recorded continuously (model RS3400 polygraph, Gould, Inc., Valley View, Ohio, USA). Serial measurements were made of arterial blood gases and pH (model ABL 330, Radiometer America, Inc. Westlake, Ohio, USA) and plasma glucose (model 2300 Stnt; Yellow Springs Instrument Co., Inc., Yellow Springs, Ohio, USA). […]

flexor reflexes in cats = conditions: in vivo; cited from earlier work
[6] = tested on: global ischemia in gerbils; conditions: 2.5-5 mg/kg, cited from earlier work
[7] = tested on: phenytoin-resistant status epilepticus; conditions: in vivo; cited from earlier work
[8] = treatment begun at 3 hr after trauma

For CC1=NN=C(c2ccc(N)cc2)c2cc3c(cc2C1)OCO3 [GYKI 52466, 1-(4-aminophenyl)-4-methyl-7,8-methylene-dioxy-5H-2,3-benzodiazepine], the “neuronal damage in the CA1 sector of the hippocampus” value ([1]; drug pretreatment but not posttreatment) is given as “significantly attenuated”, the striatal neuronal damage ([1]; pretreatment or posttreatment) is given as “not affected by either drug treatment” and the “functional deficits (learned maze responses)” value ([1]; pretreatment vs posttreatment) is given as “pretreatment but not posttreatment reduced functional deficits”.
For CC(=O)N1N=C(c2ccc(N)cc2)c2cc3c(cc2C[C@H]1C)OCO3 [talampanel, (R)-7-acetyl-5-(4-aminophenyl)-8,9-dihydro-8-methyl-7H-1,3-dioxolo [4,5-h][2,3]benzodiazepine], the “systolic, diastolic and mean arterial pressure, arterial pulse pressure, heart rate” value [2] is given as “No changes were observed”, the “clinical outcome in patients” value [3] is given as “positive results” and the chemically kindled seizures (kindled seizures; 12.5 mg/kg) is given as “suppressed chemically kindled seizures”. For the same molecule, the electrically kindled seizures (kindled seizures; 20 mg/kg) was “suppressed”, the “reduction of mean contusion area vs vehicle-treated rats” value ([4]; bregma level −5.8 mm, treatment 30 min after trauma, 7 days after trauma) was 85% and the “reduction of mean contusion area vs vehicle-treated rats” value ([4]; bregma level −6.8 mm, treatment 30 min after trauma, 7 days after trauma) was 97%. For the same molecule, the “reduction of total contusion area vs vehicle-treated rats” value ([4]; treatment 30 min after trauma, 7 days after trauma) was 70%, the overall contusion volume ([4]; treatment 30 min after trauma, moderate fluid-percussion brain injury) was “significant reduction” and the “contusion foci in brain sections (photomicrographs)” value ([4]; treatment 30 min after trauma, vs vehicle-treated rats) was “smaller contusion foci, typically confined to the deeper cortical layers”. For the same molecule, the neuroprotective effect ([4]; treatment begun at 3 hr) was “lost”, the “contusion area at bregma levels vs vehicle-treated rats” value [4, 8] was “reduced only at one bregma level (−6.8 mm)” and the “total contusion area, statistical comparison with vehicle-treated rats” value [4, 8] was “did not differ statistically”. The “numbers of normal neurons in CA1 and CA3 sectors of sham animals” value ([5]; sham animals, vehicle or talampanel (30 min or 3 hr)) was “identical in all groups”, the “survival of pyramidal neurons in the CA1 sector of hippocampus” value ([5]; treatment 30 min after trauma) was “increased survival” and the “numbers of normal neurons in CA3 sector, statistical comparison with vehicle” value ([5]; treatment at 30 min) was “did not differ statistically between groups”. The “normal pyramidal-neuron counts CA1 vs vehicle” value ([5]; treatment begun at 3 hr) was “almost identical in both groups”, the “normal pyramidal-neuron counts in the hippocampal CA3 sector vs vehicle” value ([5]; treatment begun at 3 hr) was “did not differ between groups” and the “ischemic damage in all three subsectors of the hippocampal CA1 sector vs vehicle” value ([5]; treatment starting at 30 min) was “significantly attenuated ischemic damage”. The clinical signs (rats) was “clinical signs of ataxia”, the mortality (Sprague-Dawley rats) was “None of the animals died” and the “rectal and cranial temperatures, arterial blood gases, plasma glucose, arterial blood pressure, body weight” value (Sprague-Dawley rats) was “no significant differences between groups”. The flexor reflexes (flexor reflexes in cats) was “inhibited flexor reflexes”, the “survival of hippocampal CA1 neurons / neuroprotection after global ischemia” value [6] was “significantly neuroprotective” and the “survival of hippocampal CA1 neurons / neuroprotection after global ischemia” value ([6]; listed as Talampanel) was “led to survival of hippocampal CA1 neurons”. For the same molecule, the “seizures in status epilepticus” value [7] was “arrested seizures in a dose-related manner”.
